According to patent publication US20080114047A1 (priority 2003, published 2008):
Read-outs that look alike come from different tables or passages of the source.

Assays:
[1] = test system: L. donovani axenic amastigotes; assay: In vitro anti-leishmania activity (IC50 vs. L. donovani axenic amastigotes); format: cell-based; conditions: Leishmania donovani
[2] = test system: Trypanosoma brucei rhodesiense; assay: Anti-protozoan data: T.b.r. IC50; format: cell-based; conditions: read-out: T.b.r. IC50
Plasmodium falciparum = assay: Anti-protozoan data: P. falcip. IC50; format: cell-based; conditions: read-out: P. falcip. IC50
[3] = Tables VI(a), VI(c), read-out: Leishmania donovani IC50
[4] = axenic amastigotes, Tables I-V, read-out: IC50 vs. L. donovani

Structure (SMILES)	IC50 [1, 3] [µM]	IC50 [1, 4] [µM]	IC50 ([2]; Tables VI(a), VI(c)) [µM]	IC50 (Plasmodium falciparum; Tables VI(a), VI(c)) [µM]	melting point	IC50 (in vitro) [µM]	IC50 ([1]; read-out: L. Donovani IC50) [µM]	IC50 [2] [µM]	IC50 (Plasmodium falciparum) [µM]
Cl.Cl.N=C(N)c1ccc(OCCCCCCOc2cccc(-c3cc4ccc(C(=N)N)cc4o3)c2)cc1 [Compound 65, 2-(3-(6-(4-Carbamimidoylphenoxy)hexyloxy)phenyl)benzofuran-6-carboxamidine dihydrochloride]	23.6 ± 1.09	23.6 ± 1.09	1.22	0.479	268 to 271 °C	4.33			
N=C(NO)c1ccc(-c2cc3ccc(C(=N)NO)cc3o2)cc1 [Compound 181, 2-(4-(N-Hydroxycarbamimidoyl)phenyl)-N-hydroxybenzofuran-6-carboxamidine]						> 222	> 100	3.1	0.609
N=C(N)c1cccc(-c2cc3ccc(C(=N)N)cc3o2)c1 [Compound 169, 2-(3-carbamimidoylphenyl)benzofuran-6-carboxamidine]		14.4				131	14.4	0.021	0.0035
Cl.Cl.N=C(N)c1ccc(OCCCCCCOc2ccc(-c3cc4ccc(C(=N)N)cc4o3)cc2)cc1 [Compound 77, 2-(4-(6-(4-Carbamimidoylphenoxy)hexyloxy)phenyl)benzofuran-6-carboxamidine dihydrochloride]			0.416	0.28	310 to 311 °C	8.02			
CC(C)NC(=N)c1ccc(OCCCCOc2cccc(-c3cc4ccc(C(=N)NC(C)C)cc4o3)c2)cc1.Cl.Cl [Compound 60, 2-(3-(4-(4-(N-Isopropylcarbamimidoyl)phenoxy)butoxy)phenyl)-N-isopropylbenzofuran-6-carboxamidine dihydrochloride]	12.3 ± 0.09	12.3 ± 0.09	0.936	0.178	228 to 230 °C	46.5			
CC(C)NC(=N)c1cccc(-c2cc3ccc(C(=N)NC(C)C)cc3o2)c1 [Compound 170, 2-(3-(N-isopropylcarbamimidoyl)phenyl)-N-isopropylbenzofuran-6-carboxamidine]		24.4 ± 0.1				> 200	24.4 ± 0.1	0.534	0.0586
CC(C)NC(=N)c1ccc(OCCCCCCOc2cccc(-c3cc4cc(C(=N)NC(C)C)ccc4o3)c2)cc1.Cl.Cl [Compound 42, 2-(3-(6-(4-(N-Isopropylcarbamimidoyl)phenoxy)hexyloxy)phenyl)-N-isopropylbenzofuran-5-carboxamidine dihydrochloride]	6.97 ± 1.39	6.97 ± 1.39	1.16	0.183	224 to 227 °C	7.36			
Cl.Cl.N=C(N)c1ccc(OCCCCCOc2ccc(-c3cc4ccc(C(=N)N)cc4o3)cc2)cc1 [Compound 74, 2-(4-(5-(4-Carbamimidoylphenoxy)pentyloxy)phenyl)benzofuran-6-carboxamidine dihydrochloride]	2.9 ± 0.14		0.314	0.268	285 °C (dec.)	8.98			
N=C(N)c1ccc(-c2cc3ccc(C(=N)N)cc3o2)cc1 [Compound 172, 2-(4-carbamimidoylphenyl)benzofuran-6-carboxamidine]		3.13 ± 0.15				0.83	3.13 ± 0.15	0.0069	0.0031
COc1cc(C(=N)N)cc2cc(-c3ccc(C(=N)N)cc3)oc12 [Compound 175, 2-(4-carbamimidoylphenyl)-7-methoxybenzofuran-5-carboxamidine]		3 ± 0.56				30.7	3 ± 0.56	0.006	0.0056
CC(C)NC(=N)c1ccc(-c2cc3ccc(C(=N)NC(C)C)cc3o2)cc1 [Compound 173, 2-(4-(N-isopropylcarbamimidoyl)phenyl)-N-isopropylbenzofuran-6-carboxamidine]		11.8 ± 1.28				> 199	11.8 ± 1.28	0.148	0.0145
c1cc(-c2cc3ccc(C4=NCCN4)cc3o2)ccc1C1=NCCN1 [Compound 174, 2-(4-(6-(4,5-dihydro-1H-imidazol-2-yl)benzofuran-2-yl)phenyl)-4,5-dihydro-1H-imidazole]		> 50				4.52	> 50	0.319	0.109
N=C(NO)c1cccc(-c2cc3ccc(C(=N)NO)cc3o2)c1 [Compound 180, 2-(3-(N-Hydroxycarbamimidoyl)phenyl)-N-hydroxybenzofuran-6-carboxamidine]						13.8	68.5 ± 6.16	37.8	1.85
CC(C)NC(=N)c1ccc(OCCCCCCOc2cccc(-c3cc4ccc(C(=N)NC(C)C)cc4o3)c2)cc1.Cl.Cl [Compound 66, 2-(3-(6-(4-(N-Isopropylcarbamimidoyl)phenoxy)hexyloxy)phenyl)-N-isopropylbenzofuran-6-carboxamidine dihydrochloride]	6.18 ± 0.06	6.18 ± 0.06	0.42	0.347	283 to 285 °C	10.1			
COc1cc(C2=NCCN2)cc2cc(-c3ccc(C4=NCCN4)cc3)oc12 [Compound 177, 2-(4-(5-(4,5-dihydro-1H-imidazol-2-yl)-7-methoxybenzofuran-2-yl)phenyl)-4,5-dihydro-1H-imidazole]		4.45 ± 0.36				19.9	4.45 ± 0.36	0.124	0.0323
CC(C)NC(=N)c1ccc(OCCCCOc2cccc(-c3cc4cc(C(=N)NC(C)C)ccc4o3)c2)cc1.Cl.Cl [Compound 36, 2-(3-(4-(4-(N-Isopropylcarbamimidoyl)phenoxy)butoxy)phenyl)-N-isopropylbenzofuran-5-carboxamidine dihydrochloride]	11.2 ± 0.04	11.2 ± 0.04	0.537	0.269	207 to 210 °C	36.5			
Cl.Cl.N=C(N)c1ccc(OCCCCCCOc2cccc(-c3cc4cc(C(=N)N)ccc4o3)c2)cc1 [Compound 41, 2-(3-(6-(4-Carbamimidoylphenoxy)hexyloxy)phenyl)benzofuran-5-carboxamidine dihydrochloride]	22.6 ± 0.23	22.6 ± 0.23	1.61	0.43	208 to 210 °C	3.12			
c1cc(C2=NCCN2)cc(-c2cc3ccc(C4=NCCN4)cc3o2)c1 [Compound 171, 2-(3-(6-(4,5-dihydro-1H-imidazol-2-yl)benzofuran-2-yl)phenyl)-4,5-dihydro-1H-imidazole]		> 100				12.8	> 100	0.333	0.205
N=C(NO)c1ccc(OCCCCCOc2ccc(-c3cc4cc(C(=N)NO)ccc4o3)cc2)cc1 [Compound 183, 2-(4-(5-(4-(N-Hydroxycarbamimidoyl)phenoxy)pentyloxy)phenyl)-N-hydroxybenzofuran-5-carboxamidine]			1.55	0.291		8.28			
c1cc(OCCCCCCOc2ccc(C3=NCCN3)cc2)cc(-c2cc3cc(C4=NCCN4)ccc3o2)c1 [Compound 43, 2-(2-(3-(6-(4-(4,5-Dihydro-1H-imidazol-2-yl)phenoxy)hexyloxy)phenyl)benzofuran-5-yl)-4,5-dihydro-1H-imidazole]	1.92 ± 0.19		0.996	0.0494		2.46			
